Data on 14 compounds can be found in PMC9307983 (Acta Naturae, 2022).

Test [1] concerns MGL, wild type. Particulars: cited from earlier work.
Test [2] addresses T1, MGL, Ser339Ala (Citrobacter freundii, UniProt Q84AR1, S339A). It is filed as biochemical. The settings on record: for Km / kcat: Ser339Ala MGL, 30°C, pH 8.0, coupled with HOHxoDH or LDH; for specific activity: Ser339Ala MGL samples of 95% purity, 30 mM substrate, pH 8.0. As for the experimental part: The homogeneity of samples was examined by PAGE electrophoresis under denaturing conditions. During purification, activity was determined in the β-elimination reaction; activity of the final sample was determined in β- and γ-elimination reactions. […] The amount of enzyme that catalyzes the formation of […] of keto acid was defined as the unit of enzymatic activity.
(§1) The kinetic parameters of the γ- and β-elimination reactions were determined at 30°C in the conjugate reaction with HOHxoDH or LDH based on a decrease in NADH absorbance at 340 nm (Δε = 6,220 M^–1cm^–1). The reaction mixtures contained a 100-mM potassium phosphate buffer, pH 8.0, 0.1 mM PLP, 1 mM DTT, 0.2 mM NADH, 70 μg HOHxoDH or 10 U LDH, and variable amounts of the substrate in a total volume of 1 mL. The reaction was initiated by the addition of 10 μg of the enzyme.
(§2) The kinetic parameters were calculated according to the Michaelis–Menten equation using the EnzFitter software. In the calculations, an enzyme subunit molecular weight of 43 kDa was used. The inhibition constants were also determined using the EnzFitter software.

Test [3] has as its target T1, MGL, Ser339Ala. Description: biochemical. The settings on record: for Ki: Ser339Ala MGL, γ-elimination of L-methionine, 30°C, pH 8.0, read-out: K I (inhibition constant); for type of inhibition of the physiological reaction: mutant enzyme (Ser339Ala MGL). It is filed as biochemical. On the procedure: as §1, §2
The test system of test [4] is MGL, wild type. Particulars: cited from earlier work. The source holds these as a separate data set.
Test [5] concerns the target T1, MGL, Ser339Ala. It is filed as biochemical. The settings on record: for kex, α-H (exchange rate of C-α-proton) / kex, β-H (exchange rate of C-β-protons): Ser339Ala MGL, D2O, pD 7.6, 30°C, L-alanine 144.23 mM, L-norleucine 98.04 mM; for Number of exchanged C-α-protons / Number of exchanged C-β-protons: common to wild type and Ser339Ala MGL. As for the experimental part: The kinetics of isotope exchange reactions of the C-α- and C-β-protons for deuteron in inhibitors, catalyzed by the mutant form, was detected using 1H NMR spectroscopy. The reaction was conducted in D2O containing 50 mM potassium phosphate (pD = 7.6), 0.1 mM PLP, and an inhibitor in a total volume of 0.5 mL at 30°C at L-alanine and L-norleucine concentrations of 144.23 mM and 98.04 mM, respectively. The reaction was initiated by adding 0.3–0.7 mg of the enzyme. 1H NMR spectra were recorded at fixed time intervals on a Bruker AMXIII-400 spectrometer at an operating frequency of 400 MHz. The signals of the C-α- and C-β-protons were integrated using the modified Enzkin computer program, which is a part of the XWIN-NMR programs. The kinetic curves of the yields of deuterated products were processed according to the method described in [39]. […]

For test [6], the target named is MGL, wild type. Set-up: method as in PMID 21166645. Particulars: cited from earlier work; for Ki: wild type MGL, γ-elimination of L-methionine, read-out: K I (inhibition constant); for type of inhibition of the physiological reaction: wild-type enzyme.
For test [7], the target named is wild-type MGL. The settings on record: read-out: dissociation constant of the PLP complex; cited from earlier work.
Where [8] appears, read: wild type MGL, substrate of elimination reaction.

As a reminder, the Km is the substrate concentration at which the rate is half of its maximum.

Where two headings read alike, the source gives them in different places. Marks after values point to notes of the source that are not given here.

For S-benzyl-L-cysteine [S-Bzl-L-Cys], the Km in test [1] is 180 ± 20 µM; in test [2], 5760 ± 590 µM. Besides, the results for the kcat in test [1] (setting [8]) and in test [2] were 8.16 ± 0.23* s^–1 and 1.81 ± 0.094 s^–1, respectively.
Take `NC(CCS)C(=O)O` (racemic) [DL-Hcy]: the Km was 970 ± 150 µM in test [1] (setting [8]) and 3390 ± 340 µM in test [2]. For the same compound, the kcat in test [1] (setting [8]) is on record as 8.51 ± 0.41* s^–1; in test [2], 0.28 ± 0.009 s^–1.
On to `CCCC[C@H](N)C(=O)O` [L-Nle, L-norleucine], for which, in test [3], the Ki was 0.89 ± 0.09 mM and the “type of inhibition of the physiological reaction” value is listed as “competitive inhibitors”. In test [4] (wild type MGL), the “kex, α-H (exchange rate of C-α-proton)” value is reported as 41.8* s^-1 and the “kex, β-H (exchange rate of C-β-protons)” value is reported as 4.74* s^-1. Also, in test [5], the “kex, α-H (exchange rate of C-α-proton)” value came to 0.46 s⁻¹; the “kex, β-H (exchange rate of C-β-protons)” value turned out to be 0.12 s⁻¹; the “Number of exchanged C-α-protons” value is reported as 1; the “Number of exchanged C-β-protons” value is 2. Moreover, in test [6], the Ki was 0.6 ± 0.06 mM and the “type of inhibition of the physiological reaction” value is reported as “competitive inhibitors”.
Turning to S-methyl-L-cysteine [S-Met-L-Cys], in test [1] (setting [8]), the Km was 710 ± 110 µM and the kcat is given as 4.6 ± 0.29* s^–1. Moreover, in test [2], the Km is 21800 ± 2250 µM and the kcat amounted to 0.41 ± 0.018 s^–1.
For `NCC(=O)O` [Gly, glycine], the Ki in test [3] is 22.9 ± 2.84 mM; in test [6] it was 48.5 ± 4.37 mM. The “type of inhibition of the physiological reaction” value in test [3] and in test [6] was “competitive inhibitors” each time. In addition, the “kex, α-H (exchange rate of C-α-proton)” value in test [4] is 20.2* s^-1; in test [5] it was 0.078 s⁻¹. Besides, the “exchange of the pro-(S) proton” value in test [5] (mutant form, long incubation in D2O (led to inactivation of the enzyme)) was “unable to detect any exchange”.
As for `C[C@H](N)C(=O)O` [L-Ala, L-alanine], in test [3], the “type of inhibition of the physiological reaction” value is “competitive inhibitors”. Also, in test [4] (wild type MGL), the “kex, α-H (exchange rate of C-α-proton)” value is 2.71* s^-1 and the “kex, β-H (exchange rate of C-β-protons)” value is given as 2.63* s^-1. In test [5], the “kex, α-H (exchange rate of C-α-proton)” value came to 0.387 s⁻¹; the “kex, β-H (exchange rate of C-β-protons)” value worked out at 0.116 s⁻¹; the “Number of exchanged C-α-protons” value turned out to be 1; the “Number of exchanged C-β-protons” value was 3. In test [6], the Ki is 3.41 ± 0.4 mM and the “type of inhibition of the physiological reaction” value is given as “competitive inhibitors”.
On to S-ethyl-L-cysteine [S-Et-L-Cys], for which the results for the Km in test [1] and in test [2] were 170 ± 20 µM and 6470 ± 540 µM, respectively. Further, the kcat in test [1] (setting [8]) is given as 5.03 ± 0.16* s^–1; in test [2], 0.67 ± 0.024 s^–1. The specific activity in test [2] was 1.03 U/mg.
`CC(=O)OC[C@H](N)C(=O)O` [O-Ac-L-Ser]: in test [1] (setting [8]), the Km was 4280 ± 330 µM and the kcat was 2.13 ± 0.037*** s^–1. Further, in test [2], the Km is 16400 ± 1090 µM and the kcat turned out to be 0.047 ± 0.001 s^–1.
Consider `CCSCC[C@H](N)C(=O)O` [S-Et-L-Hcy], for which, in test [1] (setting [8]), the Km is 540 ± 10 µM and the kcat is reported as 6.78 ± 0.02* s^–1. In addition, in test [2], the Km worked out at 540 ± 37 µM and the kcat is 0.16 ± 0.0016 s^–1.
As to `Cc1ncc(COP(=O)(O)O)c(C=O)c1O` [PLP, pyridoxal 5’-phosphate], the Kd in test [7] was 0.000624 mM.
Turning to `CCC[C@H](N)C(=O)O` [L-Nva, L-norvaline], in test [3], the Ki came to 1.7 ± 0.32 mM and the “type of inhibition of the physiological reaction” value was “competitive inhibitors”. For the same compound, in test [6], the Ki is 4.6 ± 0.43 mM and the “type of inhibition of the physiological reaction” value was “competitive inhibitors”.
In the case of `CC[C@H](N)C(=O)O` [L-α-Abu, L-α-aminobutyric acid], in test [3], the Ki was determined as 4.66 ± 0.51 mM and the “type of inhibition of the physiological reaction” value is listed as “competitive inhibitors”. In addition, in test [6], the Ki is 8.01 ± 0.76 mM and the “type of inhibition of the physiological reaction” value is listed as “competitive inhibitors”.
`CC(=O)OCC[C@H](N)C(=O)O` [O-Ac-L-Hse, O-acetyl-L-homoserine]: in test [1] (setting [8]), the Km is 2910 ± 180 µM and the kcat is 2.1 ± 0.053** s^–1. Moreover, in test [2], the Km worked out at 2070 ± 220 µM and the kcat is 0.77 ± 0.011 s^–1.
As for `CSCC[C@H](N)C(=O)O` [L-Met, L-methionine], in test [1] (setting [8]), the Km is 700 ± 110 µM and the kcat is on record as 6.2 ± 0.42* s^–1. Further, the specific activity in test [2] stood at 0.31 U/mg.
